In ChEMBL document CHEMBL1201862, “PubChem BioAssay data set” (2004):
Activity calls are given as the source filed them.

What was measured:
[1] = A cytotoxicity screen of small molecule inhibitors of the PhoP region in Salmonella typhi identified in the primary screen. [Related pubchem assays: 1850, 1864, 1985 ]; format: functional
[2] = NIH-3T3 fibroblast cytotoxicity, dose response, cytotoxicity control, cell-based, fluorescence, Alamar Blue, secondary assay (AID 2327); format: functional;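 also: NIH-3T3 mouse fibroblasts cultured with fluconazole at 8 µg/mL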
[3] = biological target: T1, Aminopeptidase N (Plasmodium falciparum FcB1/Columbia, UniProt O96935); experiment: malaria alanyl aminopeptidase activity blockers – biochemical, fluorogenic H-Leu-NHMec substrate, 1536-well (AID 1445); set-up: species or system Plasmodium falciparum 3D7, 3D7
T1 sequence (O96935 whole entry): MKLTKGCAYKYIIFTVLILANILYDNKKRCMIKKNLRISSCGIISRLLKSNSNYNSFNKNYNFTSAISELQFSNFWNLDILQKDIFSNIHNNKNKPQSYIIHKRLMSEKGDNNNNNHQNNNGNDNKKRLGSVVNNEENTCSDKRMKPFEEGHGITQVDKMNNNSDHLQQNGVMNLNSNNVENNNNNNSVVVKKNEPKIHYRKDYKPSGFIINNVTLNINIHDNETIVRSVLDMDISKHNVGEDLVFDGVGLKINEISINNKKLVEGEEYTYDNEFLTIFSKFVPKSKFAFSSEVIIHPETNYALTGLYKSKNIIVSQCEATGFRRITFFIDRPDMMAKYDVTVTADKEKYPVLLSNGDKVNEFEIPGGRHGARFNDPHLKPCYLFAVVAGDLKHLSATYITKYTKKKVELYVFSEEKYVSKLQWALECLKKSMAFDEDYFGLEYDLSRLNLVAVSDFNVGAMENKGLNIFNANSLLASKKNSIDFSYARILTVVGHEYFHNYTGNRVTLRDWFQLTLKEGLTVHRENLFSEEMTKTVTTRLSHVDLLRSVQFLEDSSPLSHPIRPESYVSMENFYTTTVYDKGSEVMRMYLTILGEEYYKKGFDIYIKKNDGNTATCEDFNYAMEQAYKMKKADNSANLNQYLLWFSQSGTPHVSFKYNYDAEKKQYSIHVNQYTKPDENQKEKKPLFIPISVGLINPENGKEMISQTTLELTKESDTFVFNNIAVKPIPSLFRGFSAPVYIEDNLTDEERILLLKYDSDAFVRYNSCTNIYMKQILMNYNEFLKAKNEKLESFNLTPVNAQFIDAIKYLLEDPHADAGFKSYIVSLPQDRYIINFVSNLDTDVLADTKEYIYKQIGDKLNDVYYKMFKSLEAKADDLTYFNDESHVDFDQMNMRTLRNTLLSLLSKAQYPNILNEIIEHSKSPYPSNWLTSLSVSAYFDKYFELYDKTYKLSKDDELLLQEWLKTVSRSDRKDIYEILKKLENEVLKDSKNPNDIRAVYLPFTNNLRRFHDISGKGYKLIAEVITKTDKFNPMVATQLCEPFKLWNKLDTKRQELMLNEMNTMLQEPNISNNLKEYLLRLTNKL

[4] = fluconazole-exposed Candida albicans growth modulators – fluorescence, retest, confirmation (AID 2467); format: functional, cell-based
[5] = biological target: T2, Serine/threonine-protein phosphatase (Candida dubliniensis (strain CD36 / CBS 7987 / NCPF 3949 / NRRLY-17841) (Yeast), UniProt B9W6M3); experiment: blockers of CaCl2-induced CDRE-lacZ signaling – S. cerevisiae, luminescence, secondary, dose response (AID 2388); format: functional, cell-based;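 also: yeast reporter cells carrying a calcineurin-responsive lacZ construct stimulated with calcium chloride; luminescent beta-galactosidase reporter signal in whole cells rather than isolated phosphatase activity; potency for inhibition where a drop in reporter signal means calcineurin blockade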
T2 sequence (B9W6M3 whole entry): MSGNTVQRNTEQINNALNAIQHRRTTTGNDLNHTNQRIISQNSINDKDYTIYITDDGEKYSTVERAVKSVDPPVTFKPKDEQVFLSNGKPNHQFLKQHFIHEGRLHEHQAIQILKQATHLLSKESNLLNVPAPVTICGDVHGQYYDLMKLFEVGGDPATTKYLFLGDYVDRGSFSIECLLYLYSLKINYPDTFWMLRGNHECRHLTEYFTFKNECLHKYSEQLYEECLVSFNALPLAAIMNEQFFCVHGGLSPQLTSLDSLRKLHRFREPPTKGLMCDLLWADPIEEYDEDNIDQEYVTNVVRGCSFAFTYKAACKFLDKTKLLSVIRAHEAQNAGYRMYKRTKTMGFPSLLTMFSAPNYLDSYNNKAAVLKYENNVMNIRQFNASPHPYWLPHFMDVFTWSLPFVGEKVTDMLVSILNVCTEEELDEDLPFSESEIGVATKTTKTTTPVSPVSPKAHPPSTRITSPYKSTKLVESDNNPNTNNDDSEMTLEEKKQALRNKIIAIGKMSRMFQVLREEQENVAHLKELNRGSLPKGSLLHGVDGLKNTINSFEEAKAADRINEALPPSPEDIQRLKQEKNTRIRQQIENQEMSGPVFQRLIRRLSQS

[6] = biological target: ATP-dependent molecular chaperone HSP82 (Candida albicans (strain WO-1) (Yeast), UniProt C4YTQ8); experiment: steroid-induced GRE reporter decrease in yeast – S. cerevisiae, luminescence, Hsp90 inhibitor project, dose response (AID 2400); format: functional, cell-based;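 also: beta-galactosidase luminescence from glucocorticoid response element reporter as proxy for Hsp90 function; inhibitor potency where signal loss means Hsp90 inhibition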
Chain of ATP-dependent molecular chaperone HSP82 (C4YTQ8 whole entry): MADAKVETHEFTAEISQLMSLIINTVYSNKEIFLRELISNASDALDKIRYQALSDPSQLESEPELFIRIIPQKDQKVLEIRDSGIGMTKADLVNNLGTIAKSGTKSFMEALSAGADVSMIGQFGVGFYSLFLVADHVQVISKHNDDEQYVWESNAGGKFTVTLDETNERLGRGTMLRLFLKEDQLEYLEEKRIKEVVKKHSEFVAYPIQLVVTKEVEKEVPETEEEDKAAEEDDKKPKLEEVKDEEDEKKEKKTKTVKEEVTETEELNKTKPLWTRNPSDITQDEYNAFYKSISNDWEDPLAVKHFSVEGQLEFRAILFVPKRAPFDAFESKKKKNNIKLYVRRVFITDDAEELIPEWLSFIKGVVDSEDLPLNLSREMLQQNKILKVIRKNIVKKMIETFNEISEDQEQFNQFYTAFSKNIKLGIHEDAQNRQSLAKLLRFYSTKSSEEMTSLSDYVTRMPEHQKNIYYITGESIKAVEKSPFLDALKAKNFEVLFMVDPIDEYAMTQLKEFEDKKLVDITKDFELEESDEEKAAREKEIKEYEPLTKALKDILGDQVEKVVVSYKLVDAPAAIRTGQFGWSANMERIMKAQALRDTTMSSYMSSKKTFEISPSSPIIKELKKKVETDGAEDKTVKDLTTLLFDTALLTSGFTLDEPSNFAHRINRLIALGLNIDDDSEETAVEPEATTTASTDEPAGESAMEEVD

[7] = biological target: FAD-linked sulfhydryl oxidase ALR (Homo sapiens, UniProt P55789); experiment: ALR-catalysed DTT oxidation blockers – biochemical, H2O2 detection, luminescence, cherry-pick, dose response (AID 493248)
Chain of FAD-linked sulfhydryl oxidase ALR (P55789 whole entry): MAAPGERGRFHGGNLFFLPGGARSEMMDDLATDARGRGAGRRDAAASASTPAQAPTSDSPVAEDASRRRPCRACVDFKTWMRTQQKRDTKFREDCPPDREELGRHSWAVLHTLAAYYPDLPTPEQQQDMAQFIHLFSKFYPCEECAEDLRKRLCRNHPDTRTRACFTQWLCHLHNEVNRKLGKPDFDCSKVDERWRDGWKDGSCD

[8] = HEK-293T cell viability reduction – luminescence, B-cell screen hits, cytotoxicity control for BCR NF-kB inhibitor project, dose response (AID 489021); format: functional, cell-based;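 also: HEK-293T cells carrying an NF-kB luciferase reporter; cells exposed to compound for about 14 hours before viability readout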
[9] = biological target: Induced myeloid leukemia cell differentiation protein Mcl-1 (Homo sapiens, UniProt Q07820); format: functional
Chain of Induced myeloid leukemia cell differentiation protein Mcl-1 (Q07820 whole entry): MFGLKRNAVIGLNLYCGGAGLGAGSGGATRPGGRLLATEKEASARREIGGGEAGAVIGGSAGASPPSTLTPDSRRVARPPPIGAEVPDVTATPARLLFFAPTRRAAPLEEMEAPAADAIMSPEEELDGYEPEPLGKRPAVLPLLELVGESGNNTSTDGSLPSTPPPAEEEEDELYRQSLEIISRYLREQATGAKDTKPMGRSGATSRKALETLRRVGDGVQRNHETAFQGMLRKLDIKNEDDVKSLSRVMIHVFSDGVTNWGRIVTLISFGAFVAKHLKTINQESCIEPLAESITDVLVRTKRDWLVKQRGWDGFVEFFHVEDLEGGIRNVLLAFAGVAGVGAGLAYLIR

[10] = biological target: T3, Estrogen receptor (Homo sapiens, UniProt P03372);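 also: potency for inhibiting coactivator peptide recruitment to the receptor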
T3 sequence (P03372 whole entry): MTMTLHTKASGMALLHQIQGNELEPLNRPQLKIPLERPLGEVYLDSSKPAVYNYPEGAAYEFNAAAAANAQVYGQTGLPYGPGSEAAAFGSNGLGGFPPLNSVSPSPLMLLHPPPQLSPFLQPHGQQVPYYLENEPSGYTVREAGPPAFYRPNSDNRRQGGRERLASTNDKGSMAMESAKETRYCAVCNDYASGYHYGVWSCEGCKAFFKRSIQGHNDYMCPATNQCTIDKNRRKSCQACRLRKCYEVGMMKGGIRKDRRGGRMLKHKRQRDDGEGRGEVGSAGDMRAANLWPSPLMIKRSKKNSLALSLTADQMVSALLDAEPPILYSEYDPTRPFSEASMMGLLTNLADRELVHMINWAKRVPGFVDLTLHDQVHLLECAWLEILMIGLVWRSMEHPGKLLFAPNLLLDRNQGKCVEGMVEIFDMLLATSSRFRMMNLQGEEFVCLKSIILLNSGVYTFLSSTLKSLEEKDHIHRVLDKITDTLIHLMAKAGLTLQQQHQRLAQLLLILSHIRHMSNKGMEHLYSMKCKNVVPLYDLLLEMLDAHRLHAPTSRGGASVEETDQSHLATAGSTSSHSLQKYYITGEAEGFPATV

[11] = biological target: T4, Estrogen receptor beta (Homo sapiens, UniProt Q92731);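 also: recombinant ER-beta bound to coactivator SRC1 peptide in presence of estradiol agonist; inhibitors block coactivator peptide binding and lower the FRET signal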
T4 sequence (Q92731 whole entry): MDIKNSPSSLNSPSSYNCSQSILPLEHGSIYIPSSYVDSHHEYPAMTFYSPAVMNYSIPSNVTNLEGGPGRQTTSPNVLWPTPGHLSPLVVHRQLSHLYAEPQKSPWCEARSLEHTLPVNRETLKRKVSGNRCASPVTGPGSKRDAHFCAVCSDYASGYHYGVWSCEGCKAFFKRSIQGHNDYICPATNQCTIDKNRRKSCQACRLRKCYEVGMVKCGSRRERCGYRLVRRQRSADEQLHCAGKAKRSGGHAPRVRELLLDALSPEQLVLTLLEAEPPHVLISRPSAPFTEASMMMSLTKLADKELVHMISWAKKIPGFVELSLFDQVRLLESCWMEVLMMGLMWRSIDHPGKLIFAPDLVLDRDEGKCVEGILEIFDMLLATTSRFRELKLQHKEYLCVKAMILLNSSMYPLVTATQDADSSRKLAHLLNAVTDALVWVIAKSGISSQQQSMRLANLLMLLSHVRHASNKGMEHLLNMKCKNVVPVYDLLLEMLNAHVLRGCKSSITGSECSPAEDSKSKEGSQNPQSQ

[12] = viability of PTEN-deleted HCT116 cells – cell-based, HCT116 PTEN knockout, dose response (AID 1047); format: functional;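 also: HCT116 colon tumor cells with PTEN knocked out; cells exposed to compound for 60 hours before readout; potency for loss of cell viability measured by luminescence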
[13] = biological target: T4, Estrogen receptor beta; experiment: blockers of SRC-3 recruitment to ERβ – biochemical, ELISA, streptavidin-HRP readout, orthogonal assay, confirmation (AID 1060)
[14] = viability of HCT116 lacking mutant beta-catenin – cell-based, human colon tumor, dose response (AID 1045); format: functional;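 also: HCT116 colon tumor cells with beta catenin knocked out; cells exposed to compound for 60 hours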
[15] = cells; format: functional, cell-based
[16] = biological target: T5, Trace amine-associated receptor 1 (Homo sapiens, UniProt Q96RJ0); experiment: Fluorescence-based cell-based high throughput dose response assay to identify agonists of the human trace amine associated receptor 1 (TAAR1).; format: functional
T5 sequence (Q96RJ0 whole entry): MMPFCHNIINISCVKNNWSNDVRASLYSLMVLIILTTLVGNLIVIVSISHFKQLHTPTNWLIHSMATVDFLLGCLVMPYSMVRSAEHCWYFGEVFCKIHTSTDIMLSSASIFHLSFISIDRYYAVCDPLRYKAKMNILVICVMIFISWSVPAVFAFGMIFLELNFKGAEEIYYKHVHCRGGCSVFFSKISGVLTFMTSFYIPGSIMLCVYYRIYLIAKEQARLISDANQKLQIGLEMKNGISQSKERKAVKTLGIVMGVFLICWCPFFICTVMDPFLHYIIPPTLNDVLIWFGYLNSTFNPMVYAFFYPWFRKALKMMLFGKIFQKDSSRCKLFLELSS

[17] = biological target: T5, Trace amine-associated receptor 1; experiment: Counterscreen for agonists of the human trace amine associated receptor 1 (hTAAR1): Fluorescence-based cell-based high throughput dose response assay to identify hTAAR1 agonist that also desensitize TAAR1 receptor response.; format: functional
[18] = cells; format: functional, cell-based; remark: listed apart in the source
[19] = biological target: Voltage-dependent T-type calcium channel subunit alpha-1H (Homo sapiens, UniProt O95180); format: functional;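 also: channel activity triggered by adding a high calcium stimulation buffer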
Chain of Voltage-dependent T-type calcium channel subunit alpha-1H (O95180 whole entry): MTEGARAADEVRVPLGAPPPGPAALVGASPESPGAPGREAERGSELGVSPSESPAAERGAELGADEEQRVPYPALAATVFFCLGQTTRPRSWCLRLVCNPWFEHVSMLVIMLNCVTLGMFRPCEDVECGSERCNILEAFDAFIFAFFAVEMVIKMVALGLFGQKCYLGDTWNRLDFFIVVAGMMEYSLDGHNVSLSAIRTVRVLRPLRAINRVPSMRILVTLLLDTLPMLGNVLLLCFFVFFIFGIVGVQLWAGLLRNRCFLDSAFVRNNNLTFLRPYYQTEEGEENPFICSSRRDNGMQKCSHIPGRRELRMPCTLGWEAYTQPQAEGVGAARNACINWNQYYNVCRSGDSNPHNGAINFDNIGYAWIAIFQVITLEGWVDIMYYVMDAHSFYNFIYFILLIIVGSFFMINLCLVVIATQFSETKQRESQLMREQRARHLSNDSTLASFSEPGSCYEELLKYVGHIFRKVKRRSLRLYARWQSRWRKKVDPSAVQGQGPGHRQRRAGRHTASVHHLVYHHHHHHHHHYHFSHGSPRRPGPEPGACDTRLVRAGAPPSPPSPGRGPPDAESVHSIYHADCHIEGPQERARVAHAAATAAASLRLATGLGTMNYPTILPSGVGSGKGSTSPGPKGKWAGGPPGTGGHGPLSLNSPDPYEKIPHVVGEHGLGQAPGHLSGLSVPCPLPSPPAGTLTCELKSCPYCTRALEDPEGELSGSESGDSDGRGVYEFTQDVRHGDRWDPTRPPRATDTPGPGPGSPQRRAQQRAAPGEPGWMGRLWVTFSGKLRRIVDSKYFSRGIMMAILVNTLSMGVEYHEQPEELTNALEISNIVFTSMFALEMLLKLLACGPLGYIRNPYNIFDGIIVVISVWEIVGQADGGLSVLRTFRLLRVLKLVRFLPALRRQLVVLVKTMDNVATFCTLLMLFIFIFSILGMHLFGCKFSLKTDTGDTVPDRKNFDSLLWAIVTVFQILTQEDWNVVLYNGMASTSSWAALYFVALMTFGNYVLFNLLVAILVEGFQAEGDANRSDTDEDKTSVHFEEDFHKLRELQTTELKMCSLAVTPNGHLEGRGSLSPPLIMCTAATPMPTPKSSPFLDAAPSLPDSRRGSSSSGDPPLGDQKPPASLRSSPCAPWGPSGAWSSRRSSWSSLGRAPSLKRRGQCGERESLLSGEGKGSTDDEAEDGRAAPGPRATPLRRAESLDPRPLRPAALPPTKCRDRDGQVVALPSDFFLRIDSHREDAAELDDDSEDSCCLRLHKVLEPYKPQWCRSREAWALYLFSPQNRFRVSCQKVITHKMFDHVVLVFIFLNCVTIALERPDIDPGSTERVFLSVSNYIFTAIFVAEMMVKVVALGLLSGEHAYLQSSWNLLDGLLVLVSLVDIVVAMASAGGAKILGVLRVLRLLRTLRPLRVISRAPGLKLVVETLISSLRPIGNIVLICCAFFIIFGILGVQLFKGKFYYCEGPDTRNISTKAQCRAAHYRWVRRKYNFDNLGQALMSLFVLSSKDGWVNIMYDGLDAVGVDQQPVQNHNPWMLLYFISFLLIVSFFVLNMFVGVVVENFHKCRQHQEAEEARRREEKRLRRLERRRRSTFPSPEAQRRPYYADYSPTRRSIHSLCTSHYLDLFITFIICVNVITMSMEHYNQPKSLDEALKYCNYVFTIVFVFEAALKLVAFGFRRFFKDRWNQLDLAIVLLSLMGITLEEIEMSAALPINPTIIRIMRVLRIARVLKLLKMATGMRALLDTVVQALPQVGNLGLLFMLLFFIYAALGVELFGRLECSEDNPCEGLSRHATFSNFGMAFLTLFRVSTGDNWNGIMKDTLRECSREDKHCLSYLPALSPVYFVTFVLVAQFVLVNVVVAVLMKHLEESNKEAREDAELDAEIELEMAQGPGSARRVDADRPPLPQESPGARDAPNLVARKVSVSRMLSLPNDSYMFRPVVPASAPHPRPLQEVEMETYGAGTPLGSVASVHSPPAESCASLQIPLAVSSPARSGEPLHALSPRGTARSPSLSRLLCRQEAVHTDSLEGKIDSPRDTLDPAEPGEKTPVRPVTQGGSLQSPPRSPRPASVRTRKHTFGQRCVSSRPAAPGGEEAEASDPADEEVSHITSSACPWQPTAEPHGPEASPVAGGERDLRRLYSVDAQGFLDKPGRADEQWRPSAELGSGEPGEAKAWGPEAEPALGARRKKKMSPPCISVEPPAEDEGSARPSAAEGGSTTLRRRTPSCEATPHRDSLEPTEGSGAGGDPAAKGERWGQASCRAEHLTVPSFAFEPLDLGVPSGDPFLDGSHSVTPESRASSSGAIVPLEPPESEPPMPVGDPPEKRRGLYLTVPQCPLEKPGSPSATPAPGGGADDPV

[20] = biological target: T6, Mannose-6-phosphate isomerase (Homo sapiens, UniProt P34949); experiment: MPI inhibition at elevated mannose 6-phosphate – biochemical, fluorescence intensity, high mannose 6-phosphate, primary screen (AID 1220)
T6 sequence (P34949 whole entry): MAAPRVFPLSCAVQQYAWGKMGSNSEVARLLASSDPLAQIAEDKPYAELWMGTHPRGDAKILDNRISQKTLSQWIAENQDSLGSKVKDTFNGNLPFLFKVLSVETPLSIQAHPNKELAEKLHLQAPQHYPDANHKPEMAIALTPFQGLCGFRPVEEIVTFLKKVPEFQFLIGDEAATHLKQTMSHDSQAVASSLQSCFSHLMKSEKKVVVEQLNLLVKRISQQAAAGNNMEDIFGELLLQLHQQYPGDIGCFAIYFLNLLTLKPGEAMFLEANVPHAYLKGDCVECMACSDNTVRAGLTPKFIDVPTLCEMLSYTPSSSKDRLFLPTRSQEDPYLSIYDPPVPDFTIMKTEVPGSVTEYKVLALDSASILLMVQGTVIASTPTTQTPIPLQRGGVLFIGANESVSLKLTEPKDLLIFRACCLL

[21] = biological target: Eukaryotic translation initiation factor 4E (Mus musculus, UniProt P63073); experiment: blockers of eIF4G binding by eIF4E – biochemical, TR-FRET, dose response (AID 855); format: functional;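 also: potency for disrupting eIF4E binding to eIF4GI seen as loss of FRET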
Chain of Eukaryotic translation initiation factor 4E (P63073 whole entry): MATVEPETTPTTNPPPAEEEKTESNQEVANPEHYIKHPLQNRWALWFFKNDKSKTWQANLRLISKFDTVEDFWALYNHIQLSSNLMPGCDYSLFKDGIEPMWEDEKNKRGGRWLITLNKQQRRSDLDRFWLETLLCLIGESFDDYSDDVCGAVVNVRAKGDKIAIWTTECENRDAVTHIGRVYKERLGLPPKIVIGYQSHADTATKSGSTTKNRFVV

[22] = biological target: Trypsin (Sus scrofa, UniProt P00761); experiment: trypsin protease activity blockade – biochemical, quenched peptide fluorescence, cherry-pick, selectivity assay for Rce1 protease inhibitor project, dose response (AID 488789)
Chain of Trypsin (P00761 whole entry): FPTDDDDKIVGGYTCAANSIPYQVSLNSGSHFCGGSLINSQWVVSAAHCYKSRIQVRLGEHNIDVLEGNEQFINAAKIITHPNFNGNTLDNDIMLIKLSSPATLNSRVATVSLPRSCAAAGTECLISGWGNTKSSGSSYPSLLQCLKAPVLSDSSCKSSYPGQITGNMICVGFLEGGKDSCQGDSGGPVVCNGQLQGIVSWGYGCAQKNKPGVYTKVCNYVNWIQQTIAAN

## O=C(c1ccco1)N1CCCN(Cc2nc(-c3ccc4c(c3)OCO4)no2)CC1
[1]
  EC50: > 50 µM (active)

## O=C(O)c1ccccc1-c1ccccc1C(=O)Nc1cccc(-c2nc3ccccc3o2)c1
[2]
  EC50: > 160 µM (inactive)
[3]
  IC50: 16.4 µM (active)
[4]
  EC50: 2.62 µM (active)
[5]
  EC50: > 180 µM (inactive)
[6]
  EC50: > 150 µM (inactive)

## O=C(Cc1ccc(S(=O)(=O)N2CCOCC2)s1)NCCC(c1ccccc1)c1ccccc1
[3]
  IC50: 2.76 µM (active)

## Cc1c(CCC(=O)O)c(=O)oc2cc3occ(-c4ccc(F)cc4)c3cc12
[3]
  IC50: 16.3 µM (active)
[7]
  AC50: 2.68 µM (active)

## CC(C)CCNC(=O)c1cc2c(s1)-c1ccccc1S(=O)(=O)C2
[1]
  EC50: > 50 µM (active)

## O=C(CN1C(=O)c2ccccc2S1(=O)=O)c1ccc(OC(F)F)cc1
[8]
  IC50: > 80 µM (inactive)

## CCc1cc(C(=O)N=Nc2c(O)[nH]c3ccc([N+](=O)[O-])cc23)c2ccccc2n1
[9]
  IC50: 6.88 µM (active)

## CC(C)OC(=O)c1cccc(C(=O)Oc2ccc(Br)cc2)n1
[1]
  EC50: > 50 µM (active)

## CCOc1cccc2cc(-c3cn4cc(C)ccc4n3)c(=O)oc12
[10]
  IC50: 3.82 µM (active)
[11]
  IC50: > 50 µM (not active)
[12]
  EC50: 1.33 µM (active)
[13]
  IC50: > 50 µM (not active)
[14]
  EC50: 2.46 µM (active)

## CN1CCN(c2ccc(NC(=O)c3cccc(OCc4ccccc4)c3)cc2)CC1
[13]
  IC50: 0.0793 µM (not active)
[15]
  IC50: > 29.9 µM (inactive)
[16]
  EC50: 9.36 µM (active)
[17]
  IC50: 9.06 µM (active)
[18]
  EC50: > 29.9 µM (inactive)

## CCCn1c(N2CCN(CC(=O)Nc3ccc4c(c3)OCCO4)CC2)nc2ccccc21
[19]
  EC50: 3.84 µM (active)

## CCN1CCCC1Cn1cnc2c3cc(Cl)ccc3nc-2c1O (centres undefined)
[1]
  EC50: > 50 µM (active)

## Cc1cnc(Nc2nc3ccccc3o2)nc1C(=O)Nc1cccc(C(F)(F)F)c1
[19]
  EC50: 5.15 µM (active)

## Cc1ccc(-c2nnc(CSc3nnc(COc4ccccc4)n3-c3ccc(C)cc3)o2)cc1
[19]
  EC50: 4.75 µM (active)

## OCCN1CCN(C(c2cccs2)c2ccc3cccnc3c2O)CC1 (centres undefined)
[13]
  IC50: 2.82 µM (active)
[20]
  IC50: > 50 µM (not active)
[21]
  IC50: > 64 µM (inactive)

## CCCNC(=O)c1ccc(N2CCC3(CC2)CC(c2cccc(Br)c2)=NO3)c(NC(=O)c2ccc(Cl)c([N+](=O)[O-])c2)c1
[8]
  IC50: > 80 µM (inactive)

## CN1C(=O)c2ccccc2N(C)C1c1ccccc1Cl (centres undefined)
[22]
  AC50: 9.6 µM (active)

## Cc1cccc(N2CCN(C(=O)CCCOc3ccccc3)CC2)c1C
[19]
  EC50: 5.65 µM (active)

## Cc1cc(OCC(=O)N2CCC(C(N)=O)CC2)c2c3c(c(=O)oc2c1)CCCC3
[8]
  IC50: > 80 µM (inactive)
